Legend:
Nrf2 = assay: Luciferase reporter assay using H4IIE-ARE8L cells (Nrf2 activation); assay type: cell-based, rat; conditions: R-sulforaphane Conc. Final 4.55 μg/ml as printed, concentrations of fractions not given, DMSO 0.45 % control 2921
Experimental: PloS One. 2012; 7 (5): e36774). […] The media was exchanged every two to three-days. The DMEM assay medium used charcoal treated FBS ([…] transactivation assay was performed in 96 well plates. The plates were seeded with approximately 40,000 cells per well in 100 μ[…] and incubated over night at 37° C. Then the test compounds were diluted in […] and given to the cells as described below. The cells were incubated for at least further 16 h at 37° C. and 5% CO2. Cells were equilibrated to room temperature. Lysis of the cells was done by adding 100 μL lysis solution, Steady-Glo® luciferase buffer according to the manufacturer (Promega) containing 0.5 mM DTT per well and incubated for 10 min at room temperature with gentle shaking. The luminescence was measured within 2 hours after incubation on a luminometer (Mithras, Berthold Technologies). […] We used a rat hepatoma cell line that was stably transfected with a construct that contains eight tandem ARE elements in front of a luciferase reporter gene ([…], et al 2012. PloS One. 2012; 7(5):e36774). All extracts, fractions and pure compounds were tested for concentrations that induce toxicity. Non-toxic concentrations were then selected for treating cells as describes in the methods section.

IL-6 [1] = assay: IL-6 secretion of A549 cells treated with Diesel Particulate Matter; assay type: cell-based, human; conditions: Table 4, LPS 10 μg/mL
From the text: (§1) The human bronchial epithelial cell line BEAS-2B was from ATCC (American Type Culture Collection, Manassas, Va.) and cultured in Bronchial Epithelial cell Growth Medium (BEGM, Lonza, Wakersville, Md.) in CellBIND® surface plastic flasks (Corning Inc., Corning, N.Y.). The adenocarcinomic human alveolar basal epithelial A549 cell line was obtained from ATCC and cultured in Kaighn's Modification of Ham's F-12 Medium (F-12K medium) (Life Technologies, USA), supplemented with 10% FBS (Sigma, Saint-Louis, Mo.). These cells were cultured at 37° C. in a humidified atmosphere containing 5% CO2.
(§2) BEAS-2B cells were seeded in 12-well CellBIND® surface culture plates (Corning Inc.) at 3 to 4×10^5 cells per well. A549 cells were seeded in 12-well plates at 2×10^5 cells per well. […]
(§3) After 24 h, cells were treated with the diluted Diesel Particulate Matter at 100 μg/ml and in the presence of different concentrations of Laurus Extracts, other plant extracts, fractions and compounds as indicated. […] The concentrations of IL-6 and IL-8 in the supernatants were determined by Luminex kits (BIO-RAD Laboratories, Hercules, Calif.) and used in the LiquiChip Workstation IS 200 (Qiagen, Hilden, Germany). The data were evaluated with the LiquiChip Analyser software (Qiagen).
(§4) Mean values, standard deviation and p-values with Student's t-test were calculated with Excel. […]

IL-8 = IL-8 secretion of A549 cells treated with Diesel Particulate Matter; assay type: cell-based, human; conditions: Table 5, LPS 10 μg/mL
From the text: as §1, §2, §3, §4

IL-6 [2] = assay: IL-6 secretion of BEAS-2B cells treated with Diesel Particulate Matter; assay type: cell-based, human; conditions: for IL-6 % of PM + DMSO: PM + DMSO = 100
From the text: as §1
BEAS-2B cells were seeded in 12-well CellBIND® surface culture plates (Corning Inc.) at 3 to 4×10^5 cells per well. A549 cells were seeded in 12-well plates at 2×10^5 cells per well.
Diesel Particulate Matter (Standard Reference Material SRM 1650b, National Institute of Standards & Technology, NIST, Gaithersburg, Md.) at 80 mg/ml DMSO (100%) were sonicated for 5 min and thereafter diluted 400 fold in medium. This dilution was twofold further diluted for the assay.
After 24 h, cells were treated with the diluted Diesel Particulate Matter at 100 μg/ml and in the presence of different concentrations of Laurus Extracts, other plant extracts, fractions and compounds as indicated. The final DSMO concentrations were 0.175%. Untreated cells or cells treated with 0.175% DMSO were used as controls. After 24 h, cell supernatants were collected. The concentrations of IL-6 and IL-8 in the supernatants were determined by Luminex kits (BIO-RAD Laboratories, Hercules, Calif.) and used in the LiquiChip Workstation IS 200 (Qiagen, Hilden, Germany). The data were evaluated with the LiquiChip Analyser software (Qiagen).
Mean values, standard deviation and p-values with Student's t-test were calculated with Excel. P-values […] 0.05 were considered as indication for significance.

| Compound | Nrf-2 activity, Average (Nrf2) | IL-6 (IL-6 [1]; 24 h) [pg/mL] | IL-6 % of PM + DMSO (IL-6 [1]; PM + DMSO = 100) [%] | IL-8 (IL-8; 24 h) [pg/mL] | IL-8 % of PM + DMSO (IL-8; PM + DMSO = 100) [%] | IL-6 induction relative to PM and DMSO (IL-6 [2]; LPS 10 μg/mL versus PM + DMSO (Table 2)) | IL-6 (IL-6 [2]; Table 2, LPS 10 μg/mL, 24 h) [pg/mL] | IL-6 % of PM + DMSO (IL-6 [2]; Table 2, LPS 10 μg/mL, 24 h) [%] | IL-6 (IL-6 [2]; Table 3, LPS 10 μg/mL, 24 h) [pg/mL] | IL-6 % of PM + DMSO (IL-6 [2]; Table 3, LPS 10 μg/mL) [%] |
| --- | --- | --- | --- | --- | --- | --- | --- | --- | --- | --- |
| C[S+]([O-])CCCCN=C=S (stereo not shown) [R-Sulforaphane, R-sulforaphane] | 13233 relative units of luciferase fluorescence | – | – | – | – | – | – | – | – | – |
| Lipopolysaccharide [LPS] | – | 19.6 | 45 | 406 | 140 | over 40 times | 3760 | 4482 | 6477 | 10612 |

— patent publication US20220160804A1, “USE OF LAURUS NOBILIS EXTRACT FRACTIONS TO PROTECT AGAINST AIR POLLUTION RELATED DISEASES” (DSM IP Assets B.V., priority 2019, published 2022)
